Laboratory results reported in patent US20040147494A1, “Use” (priority 2001, published 2004).

Key:
[1] = target: T1, 11 β-HSD type 1 (Rattus norvegicus, UniProt P16232); assay: biochemical; type: biochemical; conditions: rat liver cytosol 25 μL, 90 min, 37° C., cortisone (E) to cortisol (F), vs control without inhibitor, means n=2; for inhibition at 10 µM: read-out: % […]→F ± SD, inhibitor 10 μM, read-out: % INHIBITION E→F ± SD
T1 construct: Both the kidneys and livers were homogenised on ice in PBS- sucrose buffer; tissue Harlan Olac, Bicester, Oxon, UK (rats); host or cells: rat liver homogenate supernatant (Wistar rat)

[2] = target: T2, 11 β-HSD type 2 (Rattus norvegicus, UniProt P50233); assay: biochemical; conditions: rat kidney cytosol 150 μL, 60 min, 37° C., cortisol (F) to cortisone (E), vs control without inhibitor, means n=2; for inhibition at 10 µM: read-out: % […]→E ± SD, inhibitor 10 μM, read-out: % INHIBITION F→E ± SD
T2 construct: Both the kidneys and livers were homogenised on ice in PBS- sucrose buffer; tissue Harlan Olac, Bicester, Oxon, UK (rats); host or cells: rat kidney homogenate supernatant (Wistar rat)
T2 sequence (P50233 1-400): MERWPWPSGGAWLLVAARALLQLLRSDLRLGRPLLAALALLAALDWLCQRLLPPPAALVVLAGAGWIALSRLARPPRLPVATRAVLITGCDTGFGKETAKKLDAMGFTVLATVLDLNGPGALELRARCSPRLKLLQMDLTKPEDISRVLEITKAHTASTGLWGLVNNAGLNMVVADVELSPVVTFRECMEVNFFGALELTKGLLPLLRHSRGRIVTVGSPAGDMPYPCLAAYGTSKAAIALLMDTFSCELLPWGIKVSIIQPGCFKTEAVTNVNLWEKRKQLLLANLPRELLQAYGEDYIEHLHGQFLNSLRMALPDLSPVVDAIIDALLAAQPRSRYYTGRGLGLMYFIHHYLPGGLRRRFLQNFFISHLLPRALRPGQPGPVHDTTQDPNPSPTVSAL
Method: Enzymes—Rat livers and rat kidneys were obtained from normal Wistar rats (Harlan Olac, Bicester, Oxon,UK). Both the kidneys and livers were homogenised on ice in PBS- sucrose buffer (1 g/10 ml) using an Ultra-Turrax. After the livers and kidneys were homogenised the homogenate was centrifuged for five minutes at 4000 rpm. The supernatant obtained was removed and stored in glass vials at −20° C. The amount of protein per μl of rat liver and kidney cytosol was determined using the Bradford method.
The same procedure was used for the 11 β-HSD type 2 assay, the conversion F to E, to determine the amount of rat kidney to be used and the incubation time.
In these assays the influence of different inhibitors on the 11 β-HSD activity both in reductive (type 1) and oxidative (type 2) directions were assessed. In the reductive direction E is the substrate and F the product and visa versa in the case of oxidation. The method described here is for the oxidative direction.
The substrate solution contained about 50,000 cpm/ml ^3H—F in PBS-sucrose and 0.5 pM F. 1 ml of the substrate solution was added to each tube, the inhibitors were also added, at a 10 μM concentration, to each tube except to the “control” and “blank” tubes. 150 μL was added to all tubes except to the blanks, this was done to correct for the amount of ^3H[…]. The tubes were incubated for 60 minutes in a mechanically shaken water bath at 37° C. […] After incubation 50 μL of recovery was added to correct for the losses made in the next steps, containing 5000 cpm/50 μL of ^14C-E and 50 μg/50 μL of unlabelled E (to visualise the spot on the TLC-plate). The aqueous mixture was then extracted with 4 ml of ether (2×30 sec cycle, vortex mix). After freezing the aqueous phase, the ether (upper) layer was decanted into smaller tubes and evaporated at 45° C. until completely dry. The residue was then re-dissolved in 6 drops of ether and transferred to a TLC-plate. The TLC-plate was developed in chloroform:methanol (9:1 v/v) solvent system, the TLC-plate ran for about 90 minutes until the solvent front had moved about 18 cm. The position of the product E was visualised under UV-light and cut out from the TLC-plate and put into scintillation vials. Radioactivity was eluted over 5 minutes with 0.5 ml methanol. 0.5 ml of PBS- sucrose and 10 ml of Ecoscint were then added and vortex mixed before counting in the scintillation counter. Before counting the samples, two total activity vials were prepared. These contained 0.5 ml of the substrate solution, 50 μL of the recovery, 0.5 ml of methanol and 10 ml of Ecoscint. These two total activity vials were needed to determine the amount of ^14C-E and ^3H—F added in the beginning to make the calculations.
To look at the percentage of inhibition four different concentrations, 1, 5, 10 and 20 μM, were used. The method for both the rat liver, type 1 the reductive, and rat kidney, type 2 the oxidative, stay the same throughout the entire experiment.
In this experiment the influence of different inhibitors on the conversion E to F and F to E was determined. The reason why inhibition in both directions was examined was to make a comparison between the inhibitors and which type of 11 β-HSD they inhibit more. Thirty-two compounds were screened for their ability to inhibit 11 β-HSD type 1 (E to F) and type 2 (F to E). […] The percent of inhibition was calculated as the percentage of decrease in radio labelled ^3H-E and ^3H—F of product formed, compared with the control activity (the tubes without an inhibitor in it). All the results calculated are means, n=2.

T1 sequence (P16232 whole entry): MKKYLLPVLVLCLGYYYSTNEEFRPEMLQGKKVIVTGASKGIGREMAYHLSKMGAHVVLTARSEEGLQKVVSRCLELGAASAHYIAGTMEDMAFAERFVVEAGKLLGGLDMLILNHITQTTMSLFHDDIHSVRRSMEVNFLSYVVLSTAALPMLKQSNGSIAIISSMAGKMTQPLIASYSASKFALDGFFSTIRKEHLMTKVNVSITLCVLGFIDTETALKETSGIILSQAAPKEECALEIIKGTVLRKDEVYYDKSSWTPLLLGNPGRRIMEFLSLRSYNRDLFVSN

Row | melting point | Compound | inhibition at 10 µM [1] | inhibition at 10 µM [2] | further results
1 | 151 to 152 °C | CC1(C)C2CC[C@]3(C)C(CC=C4[C@@H]5C[C@@](C)(C(=O)OCc6ccccc6)CC[C@]5(C)CC[C@]43C)[C@@]2(C)CC[C@H]1O (stereo partly shown) |  |  | 
2 | 95 to 97 °C | CC(C)(C)OC(=O)[C@@]1(C)CC[C@]2(C)CC[C@]3(C)C(=CC(=O)C4[C@@]5(C)CC[C@@H](O)C(C)(C)C5CC[C@]43C)[C@@H]2C1 (stereo partly shown) |  |  | 
3 | 201 to 203 °C | CC(C)OC(=O)[C@@]1(C)CC[C@]2(C)CC[C@]3(C)C(=CCC4[C@@]5(C)CC[C@H](O)C(C)(C)C5CC[C@]43C)[C@@H]2C1 (stereo partly shown) |  |  | 
4 | 234 to 236 °C | COC(=O)[C@@]1(C)CC[C@]2(C)CC[C@]3(C)C(=CCC4[C@@]5(C)CCC(=O)C(C)(C)C5CC[C@]43C)[C@@H]2C1 (stereo partly shown) |  |  | 
5 | 163 to 166 °C | CC1(C)C2CC[C@]3(C)C(CC=C4[C@@H]5C[C@@](C)(C(=O)OC6CCCCC6)CC[C@]5(C)CC[C@]43C)[C@@]2(C)CC[C@@H]1O (stereo partly shown) |  |  | 
6 | 133 to 134 °C | CC1(C)C2CC[C@]3(C)C(CC=C4[C@@H]5C[C@@](C)(C(=O)OCC6CCCCC6)CC[C@]5(C)CC[C@]43C)[C@@]2(C)CC[C@@H]1O (stereo partly shown) |  |  | 
7 |  | CC1(C)C2CC[C@]3(C)C(C(=O)C=C4[C@@H]5C[C@@](C)(CO)CC[C@]5(C)CC[C@]43C)[C@@]2(C)CC[C@@H]1O (stereo partly shown) [STX 349] | 89.7 ± 4.9% | 100 ± 0.49% | 
8 |  | CC1(C)C2CC[C@]3(C)C(CC=C4[C@@H]5C[C@@](C)(CO)CC[C@]5(C)CC[C@]43C)[C@@]2(C)CC[C@@H]1O (stereo partly shown) [STX 350] | 13.4 ± 9.63% | 60.3 ± 3.99% | 
9 |  | CC1(C)C2CC[C@]3(C)C([C@H](O)C=C4[C@@H]5C[C@@](C)(CO)CC[C@]5(C)CC[C@]43C)[C@@]2(C)CC[C@@H]1O (stereo partly shown) [STX 351] | 70 ± 6.39% | 94.41 ± 0.63% | 
10 |  | COC(=O)[C@@]1(C)CC[C@]2(C)CC[C@]3(C)C(=CC(=O)[C@@H]4[C@@]5(C)CC[C@H](OCc6ccccc6)C(C)(C)C5CC[C@]43C)[C@@H]2C1 (stereo partly shown) [STX 359] | 17.8 ± 2.5% | 17 ± 3.5% | 
11 |  | COC(=O)[C@@]1(C)CC[C@]2(C)CC[C@]3(C)C(=CC(=O)[C@@H]4[C@@]5(C)CC[C@H](OCc6ccc(C(C)(C)C)cc6)C(C)(C)C5CC[C@]43C)[C@@H]2C1 (stereo partly shown) [STX 360] | 14.7 ± 2.4% | 26.4 ± 11.6% | 
12 |  | CC(=O)O[C@H]1CC[C@@]2(C)C(CC[C@]3(C)[C@@H]2C(=O)C=C2[C@@H]4C[C@@](C)(C(=O)NCc5ccccc5)CC[C@]4(C)CC[C@]23C)C1(C)C (stereo partly drawn) [STX 367, 3β-Acetoxy-18β-Glycyrrhetinic Acid Benzylamide] | 36.2 ± 3.69% | 27.3 ± 2.99% | 
13 |  | CCOC(=O)[C@H](C)NC(=O)[C@@]1(C)CC[C@]2(C)CC[C@]3(C)C(=CC(=O)[C@@H]4[C@@]5(C)CC[C@H](O)C(C)(C)C5CC[C@]43C)[C@@H]2C1 (stereo partly drawn) [STX 369, 18β-Glycyrrhetinic Acid L-alanine Ethyl Ester Amide] | 24.9 ± 2.51% | 35.4 ± 12.6% | 
14 |  | CC1(C)C2CC[C@]3(C)[C@H](C(=O)C=C4[C@@H]5C[C@@](C)(C(=O)NC6CC6)CC[C@]5(C)CC[C@]43C)[C@@]2(C)CC[C@@H]1O (stereo partly drawn) [STX 370, 18β-Glycyrrhetinic Acid Cyclopropylamide] | 89.6 ± 1.18% | 102.5 ± 0.22% | 
15 |  | CC1(C)C2CC[C@]3(C)[C@H](C(=O)C=C4[C@@H]5C[C@@](C)(C(=O)NCc6ccccn6)CC[C@]5(C)CC[C@]43C)[C@@]2(C)CC[C@@H]1O (stereo partly drawn) [STX 371, 18β-Glycyrrhetinic Acid (pyridin-2-ylmethyl)-amide] | 57.1 ± 5.6% | 93 ± 2.75% | 
16 |  | CC1(C)C2CC[C@]3(C)[C@H](C(=O)C=C4[C@@H]5C[C@@](C)(C(=O)NCCN6CCOCC6)CC[C@]5(C)CC[C@]43C)[C@@]2(C)CC[C@@H]1O (stereo partly shown) [STX 372, 18-Glycyrrhetinic Acid (2-morpholin-4-yl-ethyl)-amide] | 19.4 ± 7.81% | 65.8 ± 20.9% | 
17 |  | Deoxycorticosterone [reference compound] |  |  | % INHIBITION E→F ± SD ([1]; inhibitor 10 μM): 70.2 ± 1.655%; % INHIBITION F→E ± SD ([2]; inhibitor 10 μM): 53.3 ± 1.273%
